Converted amounts (≈) assume the structure as drawn. Read-outs that look alike come from different tables or passages of the source.
Tests used:
[1] = test system: S. aureus GC 6335; assay: MIC, broth microdilution; conditions: Staphylococcus aureus
[2] = test system: E. coli GC 2232; assay: MIC, broth microdilution; conditions: Escherichia coli
[3] = test system: E. coli GC 2234; assay: MIC, broth microdilution; conditions: Escherichia coli
[4] = test system: E. coli GC 2233; assay: MIC, broth microdilution; conditions: Escherichia coli
[5] = test system: E. coli GC 2271; assay: MIC, broth microdilution; conditions: Escherichia coli
[6] = test system: E. coli GC 2203; assay: MIC, broth microdilution; conditions: Escherichia coli
[7] = test system: S. aureus GC 6466; assay: MIC, broth microdilution; conditions: Staphylococcus aureus
[8] = test system: E. faecium GC 2243; assay: MIC, broth microdilution; conditions: Enterococcus faecium
[9] = test system: Staph.; assay: Range of MIC for Staph. strains, including MRSA; conditions: Staphylococcus aureus
[10] = test system: E. coli GC 3226; assay: MIC, broth microdilution; conditions: Escherichia coli
[11] = test system: E. coli; assay: Range of MIC for E. coli strains; conditions: Escherichia coli
[12] = test system: S. aureus GC 6469; assay: MIC, broth microdilution; conditions: Staphylococcus aureus
[13] = test system: S. pyogenes GC 4563; assay: MIC, broth microdilution; conditions: Streptococcus pyogenes
[14] = test system: E. faecalis GC 2265; assay: MIC, broth microdilution; conditions: Enterococcus faecalis
[15] = test system: P. aeruginosa GC 2214; assay: MIC, broth microdilution; conditions: Pseudomonas aeruginosa
[16] = test system: E. coli GC 2270; assay: MIC, broth microdilution; conditions: Escherichia coli
[17] = test system: E. coli GC 2231; assay: MIC, broth microdilution; conditions: Escherichia coli
[18] = test system: S. aureus GC 2216; assay: MIC, broth microdilution; conditions: Staphylococcus aureus
[19] = test system: E. coli GC 2236; assay: MIC, broth microdilution; conditions: Escherichia coli
[20] = test system: E. faecium GC 4556; assay: MIC, broth microdilution; conditions: Enterococcus faecium

- MIC ([1]; GC6335, read-out: MINIMAL INHIBITORY CONCENTRATION MIC, Human Serum): 1 µg/mL (≈ 1.3 µM)
- MIC ([1]; GC6335, read-out: MINIMAL INHIBITORY CONCENTRATION MIC, Mouse Serum): 1 µg/mL (≈ 1.3 µM)
- MIC ([1]; GC6335, read-out: MINIMAL INHIBITORY CONCENTRATION MIC, Water): 1 µg/mL (≈ 1.3 µM)
- MIC ([2]; GC2232, read-out: MINIMAL INHIBITORY CONCENTRATION MIC, Human Serum): 8 µg/mL (≈ 10.4 µM)
- MIC ([2]; GC2232, read-out: MINIMAL INHIBITORY CONCENTRATION MIC, Mouse Serum): 1 µg/mL (≈ 1.3 µM)
- MIC ([2]; GC2232, read-out: MINIMAL INHIBITORY CONCENTRATION MIC, Water): 32 µg/mL (≈ 41.6 µM)
- MIC ([3]; GC2234, read-out: MINIMAL INHIBITORY CONCENTRATION MIC, Human Serum): 8 µg/mL (≈ 10.4 µM)
- MIC ([3]; GC2234, read-out: MINIMAL INHIBITORY CONCENTRATION MIC, Mouse Serum): 1 µg/mL (≈ 1.3 µM)
- MIC ([3]; GC2234, read-out: MINIMAL INHIBITORY CONCENTRATION MIC, Water): 64 µg/mL (≈ 83.1 µM)
- MIC ([4]; GC2233, read-out: MINIMAL INHIBITORY CONCENTRATION MIC, Human Serum): 8 µg/mL (≈ 10.4 µM)
- MIC ([4]; GC2233, read-out: MINIMAL INHIBITORY CONCENTRATION MIC, Mouse Serum): 1 µg/mL (≈ 1.3 µM)
- MIC ([4]; GC2233, read-out: MINIMAL INHIBITORY CONCENTRATION MIC, Water): 32 µg/mL (≈ 41.6 µM)
- MIC ([5]; GC2271, read-out: MINIMAL INHIBITORY CONCENTRATION MIC, Human Serum): 4 µg/mL (≈ 5.2 µM)
- MIC ([5]; GC2271, read-out: MINIMAL INHIBITORY CONCENTRATION MIC, Mouse Serum): 1 µg/mL (≈ 1.3 µM)
- MIC ([5]; GC2271, read-out: MINIMAL INHIBITORY CONCENTRATION MIC, Water): 32 µg/mL (≈ 41.6 µM)
- MIC ([6]; GC2203, read-out: MINIMAL INHIBITORY CONCENTRATION MIC, Human Serum): 8 µg/mL (≈ 10.4 µM)
- MIC ([6]; GC2203, read-out: MINIMAL INHIBITORY CONCENTRATION MIC, Mouse Serum): 1 µg/mL (≈ 1.3 µM)
- MIC ([6]; GC2203, read-out: MINIMAL INHIBITORY CONCENTRATION MIC, Water): 32 µg/mL (≈ 41.6 µM)
- MIC ([7]; GC6466, read-out: MINIMAL INHIBITORY CONCENTRATION MIC, Human Serum): 0.25 µg/mL (≈ 0.325 µM)
- MIC ([7]; GC6466, read-out: MINIMAL INHIBITORY CONCENTRATION MIC, Mouse Serum): 0.25 µg/mL (≈ 0.325 µM)
- MIC ([7]; GC6466, read-out: MINIMAL INHIBITORY CONCENTRATION MIC, Water): 0.25 µg/mL (≈ 0.325 µM)
- MIC ([8]; GC2243, read-out: MINIMAL INHIBITORY CONCENTRATION MIC, Human Serum): 0.25 µg/mL (≈ 0.325 µM)
- MIC ([8]; GC2243, read-out: MINIMAL INHIBITORY CONCENTRATION MIC, Mouse Serum): 0.25 µg/mL (≈ 0.325 µM)
- MIC ([8]; GC2243, read-out: MINIMAL INHIBITORY CONCENTRATION MIC, Water): 0.5 µg/mL (≈ 0.649 µM)
- MIC ([9]; MRSA, read-out: Range of MIC, Staph (Mouse Serum)): 0.25 to 2 µg/mL (≈ 0.325 to 2.6 µM)
- MIC ([9]; MRSA, read-out: Range of MIC, Staph (Water)): 0.25 to 4 µg/mL (≈ 0.325 to 5.2 µM)
- MIC ([9]; read-out: Minimum inhibitory concentration (MIC), Staph (Human Serum)): 0.25 to 2 µg/mL (≈ 0.325 to 2.6 µM)
- MIC ([9]; read-out: Minimum inhibitory concentration (MIC), Staph (Water)): 0.25 to 4 µg/mL (≈ 0.325 to 5.2 µM)
- MIC ([10]; GC3226, read-out: MINIMAL INHIBITORY CONCENTRATION MIC, Human Serum): 8 µg/mL (≈ 10.4 µM)
- MIC ([10]; GC3226, read-out: MINIMAL INHIBITORY CONCENTRATION MIC, Mouse Serum): 1 µg/mL (≈ 1.3 µM)
- MIC ([10]; GC3226, read-out: MINIMAL INHIBITORY CONCENTRATION MIC, Water): 32 µg/mL (≈ 41.6 µM)
- MIC ([11]; 20 h, read-out: Range of MIC, E. coli (Mouse Serum)): 1 to 2 µg/mL (≈ 1.3 to 2.6 µM)
- MIC ([11]; read-out: Minimum inhibitory concentration (MIC), E. coli (Human Serum)): 4 to 16 µg/mL (≈ 5.2 to 20.8 µM)
- MIC ([11]; read-out: Minimum inhibitory concentration (MIC), E. coli (water)): 32 to 64 µg/mL (≈ 41.6 to 83.1 µM)
- MIC ([11]; read-out: Range of MIC, E. coli (Water)): 32 to 64 µg/mL (≈ 41.6 to 83.1 µM)
- MIC ([12]; GC6469, read-out: MINIMAL INHIBITORY CONCENTRATION MIC, Human Serum): 1 µg/mL (≈ 1.3 µM)
- MIC ([12]; GC6469, read-out: MINIMAL INHIBITORY CONCENTRATION MIC, Mouse Serum): 1 µg/mL (≈ 1.3 µM)
- MIC ([12]; GC6469, read-out: MINIMAL INHIBITORY CONCENTRATION MIC, Water): 2 µg/mL (≈ 2.6 µM)
- MIC ([13]; GC4563, read-out: MINIMAL INHIBITORY CONCENTRATION MIC, Human Serum): 0.12 µg/mL (≈ 0.156 µM)
- MIC ([13]; GC4563, read-out: MINIMAL INHIBITORY CONCENTRATION MIC, Mouse Serum): 0.12 µg/mL (≈ 0.156 µM)
- MIC ([13]; GC4563, read-out: MINIMAL INHIBITORY CONCENTRATION MIC, Water): 0.25 µg/mL (≈ 0.325 µM)
- MIC ([14]; GC2265, read-out: MINIMAL INHIBITORY CONCENTRATION MIC, Human Serum): 2 µg/mL (≈ 2.6 µM)
- MIC ([14]; GC2265, read-out: MINIMAL INHIBITORY CONCENTRATION MIC, Mouse Serum): 1 µg/mL (≈ 1.3 µM)
- MIC ([14]; GC2265, read-out: MINIMAL INHIBITORY CONCENTRATION MIC, Water): 4 µg/mL (≈ 5.2 µM)
- MIC ([15]; GC2214, read-out: MINIMAL INHIBITORY CONCENTRATION MIC, Human Serum): > 64 µg/mL
- MIC ([15]; GC2214, read-out: MINIMAL INHIBITORY CONCENTRATION MIC, Mouse Serum): 32 µg/mL (≈ 41.6 µM)
- MIC ([15]; GC2214, read-out: MINIMAL INHIBITORY CONCENTRATION MIC, Water): > 64 µg/mL
- MIC ([16]; GC2270, read-out: MINIMAL INHIBITORY CONCENTRATION MIC, Human Serum): 8 µg/mL (≈ 10.4 µM)
- MIC ([16]; GC2270, read-out: MINIMAL INHIBITORY CONCENTRATION MIC, Mouse Serum): 1 µg/mL (≈ 1.3 µM)
- MIC ([16]; GC2270, read-out: MINIMAL INHIBITORY CONCENTRATION MIC, Water): 32 µg/mL (≈ 41.6 µM)
- MIC ([17]; GC2231, read-out: MINIMAL INHIBITORY CONCENTRATION MIC, Human Serum): 8 µg/mL (≈ 10.4 µM)
- MIC ([17]; GC2231, read-out: MINIMAL INHIBITORY CONCENTRATION MIC, Mouse Serum): 1 µg/mL (≈ 1.3 µM)
- MIC ([17]; GC2231, read-out: MINIMAL INHIBITORY CONCENTRATION MIC, Water): 64 µg/mL (≈ 83.1 µM)
- MIC ([18]; GC2216, read-out: MINIMAL INHIBITORY CONCENTRATION MIC, Human Serum): 0.5 µg/mL (≈ 0.649 µM)
- MIC ([18]; GC2216, read-out: MINIMAL INHIBITORY CONCENTRATION MIC, Mouse Serum): 1 µg/mL (≈ 1.3 µM)
- MIC ([18]; GC2216, read-out: MINIMAL INHIBITORY CONCENTRATION MIC, Water): 2 µg/mL (≈ 2.6 µM)
- MIC ([19]; GC2236, read-out: MINIMAL INHIBITORY CONCENTRATION MIC, Human Serum): 8 µg/mL (≈ 10.4 µM)
- MIC ([19]; GC2236, read-out: MINIMAL INHIBITORY CONCENTRATION MIC, Mouse Serum): 1 µg/mL (≈ 1.3 µM)
- MIC ([19]; GC2236, read-out: MINIMAL INHIBITORY CONCENTRATION MIC, Water): 32 µg/mL (≈ 41.6 µM)
- MIC ([20]; GC4556, read-out: MINIMAL INHIBITORY CONCENTRATION MIC, Human Serum): 1 µg/mL (≈ 1.3 µM)
- MIC ([20]; GC4556, read-out: MINIMAL INHIBITORY CONCENTRATION MIC, Mouse Serum): 1 µg/mL (≈ 1.3 µM)
- MIC ([20]; GC4556, read-out: MINIMAL INHIBITORY CONCENTRATION MIC, Water): 2 µg/mL (≈ 2.6 µM)
Structure (SMILES): CN(C)c1cc(NC(=O)CN(C(=O)OCOC(=O)C2CCCCC2)C(C)(C)C)c(O)c2c1C[C@H]1C[C@H]3[C@H](N(C)C)C(O)=C(C(N)=O)C(=O)[C@@]3(O)C(O)=C1C2=O [Example 50, ({[(2-{[(5aR,6aS,7S,10aS)-9-(aminocarbonyl)-4,7-bis(dimethylamino)-1,8,10a,11-tetrahydroxy-10,12-dioxo-5,5a,6,6a,7,10,10a,12-octahydrotetracen-2-yl]amino}-2-oxoethyl)(tert-butyl)amino]carbonyl}oxy)methyl cyclohexanecarboxylate]

— patent US20070049564A1 (Wyeth, priority 2005, published 2007)
